Reference: PMC10166615 (Bioorganic & Medicinal Chemistry, 2023)

Molecular target: SARS-CoV-2 3CLpro (Severe acute respiratory syndrome coronavirus 2, UniProt P0DTD1)
Assay: biochemical
[1] = read-out: SARS-CoV-2 3CLpro Inhibition (%)

Work on `CC(C)(C)[C@H](NC(=O)C(F)(F)F)C(=O)N1C[C@@H]2CCC[C@@H]2[C@H]1C(=O)N[C@H](C#N)C[C@@H]1CCNC1=O` [1a, (1S,3aR,6aS)-N-((S)-1-cyano-2-((S)-2-oxopyrrolidin-3-yl)ethyl)-2-((S)-3,3-dimethyl-2-(2,2,2-trifluoroacetamido)butanoyl)octahydrocyclopenta[c]pyrrole-1-carboxamide] yielded an IC50 of 0.0181 ± 0.00235 µM, an inhibition at 0.02 µM [1] of 24% and an inhibition at 0.1 µM [1] of 82.5%. For the same molecule, the inhibition at 1 µM [1] was 88.9% and the inhibition at 10 µM [1] was 88.3%.
